How the values were obtained:
[1] = target: T1, recombinant purified TrxRl (Homo sapiens, UniProt Q16881); assay: TrxR1 enzymatic activity measurement in vitro; assay type: biochemical; settings: recombinant purified enzyme in vitro
T1 construct: made in house; host or cells: Release Factor 1-depleted E. coli strain
Protocol: (§1) TrxRl enzyme was recombinantly produced with high Sec contents in a specific Release Factor 1-depleted E. coli strain and purified as previously described (Arnér ESJ, Holmgren A, in Current Protocols in Toxicology, Maines M, Costa L, Reed D, Sassa S, Eds. (John Wiley & Sons, Inc., New York, 2000), pp. 7.4.1-7.4.14). TrxRl and GSR (Sigma) recombinant enzyme assays were performed in a reaction buffer containing 50 mM Tris pH 7.5 with 2 mM EDTA and 0.1 mg/mL bovine serum albumin as described previously (Arnér ESJ, Holmgren A, in Current Protocols in Toxicology, Maines M, Costa L, Reed D, Sassa S, Eds. (John Wiley & Sons, Inc., New York, 2000), pp. 7.4.1-7.4.14). Briefly, assays were performed in triplicate using 96-well plates, with activity inferred from absorbance changes using a Spectra Max plate reader. Results of recombinant enzyme assays were normalized to DMSO and to no enzyme controls.
We used recombinant purified TrxRl and GR in an in vitro assay as described in methods section.

GR = GR (Homo sapiens, UniProt P00390); assay: GR enzymatic activity measurement in vitro; assay type: biochemical; set-up: purchased Sigma; settings: recombinant purified enzyme in vitro
Chain of GR (P00390 44-522): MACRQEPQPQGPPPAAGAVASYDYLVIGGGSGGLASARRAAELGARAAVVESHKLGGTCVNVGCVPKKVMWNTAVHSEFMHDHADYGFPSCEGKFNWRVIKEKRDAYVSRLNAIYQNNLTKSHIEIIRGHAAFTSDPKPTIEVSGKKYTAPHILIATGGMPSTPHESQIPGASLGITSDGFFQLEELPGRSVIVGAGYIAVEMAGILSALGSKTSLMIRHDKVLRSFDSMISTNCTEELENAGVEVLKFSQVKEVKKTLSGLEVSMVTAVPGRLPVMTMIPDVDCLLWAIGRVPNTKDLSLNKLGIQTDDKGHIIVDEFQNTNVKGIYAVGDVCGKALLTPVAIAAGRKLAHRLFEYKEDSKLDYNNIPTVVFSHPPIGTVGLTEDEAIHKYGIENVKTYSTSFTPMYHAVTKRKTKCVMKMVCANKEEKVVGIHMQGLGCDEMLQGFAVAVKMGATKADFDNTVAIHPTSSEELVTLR
Protocol: as §1
Glutathione reductase inhibition assay was performed according to (S. Busker, W. Qian, M. Haraldsson, B. Espinosa, L. Johansson, S. Attarha, I. Kolosenko, J. Liu, M. Dagnell, D. Grandér, E.S.J. Arnér, K. PokrovskajaTamm, B.D.G. Page. Irreversible TrxRl inhibitors block STAT3 activity and induce cancer cell death, Sci. Adv., 6 (2020), 10.1126/sciadv.aax7945). 5 or 10 µM compound was incubated with 175 µM GSH in TE buffer. […]

HCT116-Cas9 = assay: Growth suppression assay (resazurin); assay type: cell-based; settings: 48 hours of incubation, hydrochloride
Protocol: (§2) Breast, colon, ovarian, cervical, liver and lung carcinoma cell lines were grown in DMEM supplemented with 10% FBS, and antibiotics were cultured at 37 °C and 5% CO2. […] To obtain an oxygen concentration of 0.05%, the cells were flushed with the premixed gas continuously throughout the experiment.
(§3) Cells were grown in 96-well plates at a density of 3000 cells per well with or without doxycycline and treated with compounds. After 48 hours of incubation the proliferative cell reagent resazurin (Thermo Fisher Scientific) was added to the cells. The degree of resazurin reduction, which reflects cell viability, was measured by microplate reader by monitoring the absorbance at 570 nm and 600 nm, according to the manufacturer.

MCF7-Cas9 = assay: Growth suppression assay (resazurin); assay type: cell-based; settings: 48 hours of incubation, hydrochloride
Protocol: as §2, §3

MCF7 cells = assay: Apoptosis detection by FACS (Annexin V staining); assay type: cell-based; settings: 2 µM, 24h treatment
Protocol: Cells were placed on 12-well plate at a density of 30000/cm^2 and treated with compounds. After 24h incubation cells were harvested by trypsinization, fixed with 70% ethanol, treated with RNase A (0.25 mg/ml) and stained with Annexin V according to manufacturer's instructions (Thermo Fisher Scientific). Samples were analyzed on a Becton Dickinson FACScan. Data were analyzed by the CellQuest software, version 3.2.1.
To find out whether the growth suppression by 1d*HCl is due to triggering cell death by apoptosis, we performed the Annexin V-mediated staining of phosphatidylserine, exposed on surface of cells undergoing apoptotic cell death. We detected Annexin V-positive cells using FACS.

TrxRl = target: T2, TrxRl (Homo sapiens, UniProt Q16881); assay: TrxR1 enzymatic activity measurement in cellulo (TXN-dependent insulin reduction assay); assay type: cell-based; settings: MCF7 breast cancer cells, 5 or 10 µM, 2h after treatment, depending on concentration
T2 construct: endogenous in cells; host or cells: MCF7 (A37, A39); HCT116 (A39)
T2 sequence (Q16881 151-649): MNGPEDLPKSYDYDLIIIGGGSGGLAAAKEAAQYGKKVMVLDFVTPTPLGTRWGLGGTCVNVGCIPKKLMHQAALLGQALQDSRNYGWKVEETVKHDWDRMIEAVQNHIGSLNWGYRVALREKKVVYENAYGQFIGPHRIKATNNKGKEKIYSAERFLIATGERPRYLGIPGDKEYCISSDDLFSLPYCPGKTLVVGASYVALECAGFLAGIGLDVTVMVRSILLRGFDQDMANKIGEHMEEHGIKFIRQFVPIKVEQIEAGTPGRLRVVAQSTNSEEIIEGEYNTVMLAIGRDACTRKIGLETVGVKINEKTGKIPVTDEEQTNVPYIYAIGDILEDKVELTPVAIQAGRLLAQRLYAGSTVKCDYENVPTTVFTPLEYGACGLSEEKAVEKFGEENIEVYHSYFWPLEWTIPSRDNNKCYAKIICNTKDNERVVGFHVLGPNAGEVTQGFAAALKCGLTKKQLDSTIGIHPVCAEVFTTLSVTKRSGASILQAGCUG
Protocol: MCF7 cells were treated with 5 or 10 µM 1d*HCl or DMSO as a control. Cells were collected 2 h and 6 h after treatment, washed twice with PBS, and lysed in 100 µL of lysis buffer (50 mM Tris-HCl, 2mM EDTA, 0.15 M NaCl, 1% Triton X-100, protease inhibitors (Roche), pH 7.5). Cells were scraped, collected and snap frozen. After three freeze-thawing cycles the lysate was spinned down, supernatant collected and protein concentration measured using Pierce bicinchoninic acid assay kit (BCA, from Thermofisher Scientific) according to the manufacturer's protocol. To measure TrxR activity, the end-point TXN-dependent insulin reduction assay was used, essentially as described previously (WC Stafford, et al, Irreversible inhibition of cytosolic thioredoxin reductase 1 as a mechanistic basis for anti-cancer therapy, Sci Transl Med (2018), Feb 14;10(428):eaaf7444. doi: 10.1126/scitranslmed.aaf7444). […] After 0, 15 and 30 min, 10 µL aliquots were taken and combined with 6 M guanidine-HCl and 2.5 mM DTNB in 96-well plates (PerkinElmer), whereupon the absorbance at 412 nm was measured using microplate spectrophotometer (TECAN). Levels of active TrxR were normalised to DMSO control samples from each treatment timepoint.
Having established that 1d*HCl inhibits TrxR1activity in vitro, it was important to confirm that 1d*HCl targets TrxRl in living cells. […]

γH2AX = assay: DNA damage detection by Western blot (phosphorylated histone H2AX); assay type: cell-based; settings: HCT116 and MCF7
Protocol: The extraction of total cell lysates and western blot were performed according to standard procedure. The antibodies used for immunoblotting were: p53 (sc-126, Santa Cruz Biotechnology), γH2AX (#07-164, Millipore), TrxRl 19A1 (AbFrontier). Anti-β-actin monoclonal antibody (Millipore) was used as loading control. The horseradish peroxidase-coupled secondary antibodies (Jackson ImmunoResearch) and SuperSignal™ West Dura Extended Duration Substrate detection system (Thermo Fischer Scientific), and images were visualized using ChemiDoc Imaging System (Bio-Rad).
The majority of chemotherapeutic drugs used currently in the clinic, are DNA damaging drugs. Induction of DNA damage is a very efficient way of elimination of cancer cells. Unfortunately, these drugs induce DNA damage also in normal cells, leading to severe side effects. We addressed the question whether 1d*HCl induces DNA damage. We tested this by detection of a hallmark of DNA damage, induction of phosphorylated histone H2AX, so called γH2AX. We used anti-yH2AX antibody to detect it in cells treated with 1d*HCl.

T1 sequence (Q16881 151-649): as above

## Cl.N#Cc1c(-c2cccnc2)[n+]([O-])c2cc(F)c(N3CCOCC3)cc2[n+]1[O-] [1d*HCl, 6-Fluoro-7-(morpholin-4-yl)-3-(pyridin-3-yl)quinoxaline-2-carbonitrile-1,4-dioxide hydrochloride]
[1]
  enzymatic activity of TrxRl: efficiently inhibited the enzymatic activity of TrxRl in a dose- and time-dependent manner
GR
  GR activity: did not inhibit GR activity
HCT116-Cas9
  IC50: 0.69 µM
MCF7-Cas9
  IC50: 1.6 µM
MCF7 cells
  Annexin V-positive cells: induced Annexin V-positive cells statistically significantly
TrxRl
  inhibition of TrxRl activity in cells: 70-80%
γH2AX
  induction of γH2AX: negligible
